According to patent US20260258035A1, “FIVE-MEMBERED AND SIX-MEMBERED NITROGEN-CONTAINING COMPOUND, AND INTERMEDIATE, PREPARATION METHOD AND USE THEREOF” (HANGZHOU SYNRX THERAPEUTICS BIOMEDICAL TECHNOLOGY CO., LTD., priority 2022, published 2026):
Like-named read-outs stand apart in the source and are kept apart here.

How the values were obtained:
[1] = test system: Human breast squamous carcinoma cells HCC1806; test: Cell function assay (In-Cell Western, PAR/pADPr after MMS); format: cell-based; conditions: read-out: IC50 (nM) in cell function assay
Description: 2. Cell Function Assay (In-Cell Western)
• 1) Human breast squamous carcinoma cells HCC1806 (ATCC) were seeded to the 384-well plate (Corning, #3764) at 20,000 cells/well, incubated for 24 h in a CO2 (5%) incubator at 37° C. to allow for complete adherence of the cells; • 2) 120 nL compounds or DMSO were added to the 384-well plate by Echo 550 (LABCYTE, #550) (final concentrations of compounds: 30000 nM, 10000 nM, 3000 nM, 1000 nM, 300 nM, 100 nM, 30 nM, 10 nM, 3 nM, 1 nM, 0 nM), and then the cells were incubated for 1 h in a CO2 (5%) incubator at 37° C.; • 3) 40 nL MMS (methyl mesylate, Sigma, #129925)(final concentration: 0.5 mM) was added to the plate by Echo 550, and the cells were treated for 1 h in a CO2 (5%) incubator at 37° C.

[2] = biological target: PARG (Homo sapiens, UniProt Q86W56); test: Biochemical assay (PARG, TFMU-ADPr substrate)
Chain of PARG (Q86W56 whole entry): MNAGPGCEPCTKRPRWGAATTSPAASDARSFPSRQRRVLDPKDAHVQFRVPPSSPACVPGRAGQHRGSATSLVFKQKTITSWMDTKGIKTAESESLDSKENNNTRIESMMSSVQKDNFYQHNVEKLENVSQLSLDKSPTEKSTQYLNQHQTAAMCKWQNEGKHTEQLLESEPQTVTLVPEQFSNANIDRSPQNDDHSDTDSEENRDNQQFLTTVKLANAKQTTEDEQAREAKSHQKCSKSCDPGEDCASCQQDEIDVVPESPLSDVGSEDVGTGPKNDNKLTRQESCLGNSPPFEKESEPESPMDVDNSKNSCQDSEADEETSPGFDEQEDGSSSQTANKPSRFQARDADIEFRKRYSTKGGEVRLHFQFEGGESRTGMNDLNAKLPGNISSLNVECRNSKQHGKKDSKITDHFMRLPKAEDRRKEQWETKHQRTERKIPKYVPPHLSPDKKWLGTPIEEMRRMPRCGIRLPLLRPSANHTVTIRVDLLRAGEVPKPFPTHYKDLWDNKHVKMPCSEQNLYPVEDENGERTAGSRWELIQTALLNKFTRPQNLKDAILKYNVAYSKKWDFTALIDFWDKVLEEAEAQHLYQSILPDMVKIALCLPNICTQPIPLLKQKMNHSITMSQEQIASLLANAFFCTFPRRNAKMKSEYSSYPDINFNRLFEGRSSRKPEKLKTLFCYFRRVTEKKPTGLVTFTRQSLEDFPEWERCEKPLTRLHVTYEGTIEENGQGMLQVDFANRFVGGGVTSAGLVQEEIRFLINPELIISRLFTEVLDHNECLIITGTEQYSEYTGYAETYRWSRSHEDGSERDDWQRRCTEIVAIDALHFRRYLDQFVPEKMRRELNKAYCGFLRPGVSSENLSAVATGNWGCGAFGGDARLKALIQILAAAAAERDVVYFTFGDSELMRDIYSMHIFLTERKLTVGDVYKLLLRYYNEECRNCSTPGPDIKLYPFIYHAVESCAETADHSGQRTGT

[3] = test system: HCC1806; test: Cell viability assay (CellTiter-Glo); format: cell-based, Human; conditions: HCC1806, 7 days, CellTiter-Glo, read-out: IC50 (nM) in cell viability assay
[4] = HCC1806, In-Cell Western, MMS treatment
[5] = HCC1806, compound 1 h then 0.5 mM MMS 1 h, PAR/pADPr antibody, In-Cell Western
[6] = 4 nM PARG, 66.2 uM TFMU-ADPr, 3 min at room temperature

C[C@@H]1CN(c2cc(S(=O)(=O)NC3(CF)CC3)cn3c(-c4nnc(C(F)F)s4)ncc23)CCN1C(=O)C1(C)CC1 [Example 63, (R)-3-(5-(difluoromethyl)-1,3,4-thiadiazol-2-yl)-N-(1-(fluoromethyl)cyclopropyl)-8-(3-methyl-4-(1-methylcyclopropane-1-carbonyl)piperazin-1-yl)imidazo[1,5-a]pyridine-6-sulfonamide] was tested. Which IC50 [1, 4] did it give?
Its IC50 is 1.36 nM.

What about the IC50 [1, 5] of the same compound?
The IC50 was under 100 nM.

What about the IC50 [2, 6] of the same compound?
Its IC50 is under 100 nM.

And the IC50 ([2]; PARG, TFMU-ADPr substrate)?
Its IC50 is 2.12 nM.

With CC(C)C(=O)N1CCN(c2cc(S(=O)(=O)NC3(C)COC3)cn3c(-c4nnc(C(F)F)s4)nnc23)CC1 [Example 103, 3-(5-(difluoromethyl)-1,3,4-thiadiazol-2-yl)-8-(4-isobutyrylpiperazin-1-yl)-N-(3-methyloxetan-3-yl)-[1,2,4]triazolo[4,3-a]pyridine-6-sulfonamide] as the compound, how does the IC50 [1, 4] read?
The IC50 was 33.6 nM.

And the IC50 [1, 5]?
The IC50 was under 100 nM.

What about the IC50 [2, 6] of the same compound?
The IC50 was under 100 nM.

What about the IC50 ([2]; PARG, TFMU-ADPr substrate) of the same compound?
The IC50 was 1.5 nM.

With [2H]c1nc(-c2nnc(C(F)F)s2)n2cc(S(=O)(=O)NC3(CF)COC3)c(F)c(N3CCN(C(=O)C(C)C)CC3)c12 [Example 154, 3-(5-(difluoromethyl)-1,3,4-thiadiazol-2-yl)-7-fluoro-N-(3-(fluoromethyl)oxetan-3-yl)-8-(4-isobutyrylpiperazin-1-yl)imidazo[1,5-a]pyridine-6-sulfonamide-1-d] as the compound, how does the IC50 [1, 4] read?
The IC50 was 9.94 nM.

And the IC50 [1, 5]?
Its IC50 is under 100 nM.

And the IC50 [2, 6]?
Its IC50 is under 100 nM.

And the IC50 ([2]; PARG, TFMU-ADPr substrate)?
Its IC50 is 8.22 nM.

With C[C@H]1CN(c2cc(S(=O)(=O)NC3(C#N)CC3)cn3c(-c4nnc(C(F)F)s4)ncc23)CCN1C(=O)C1(C)CC1 [Example 86, (S)-N-(1-cyanocyclopropyl)-3-(5-(difluoromethyl)-1,3,4-thiadiazol-2-yl)-8-(3-methyl-4-(1-methylcyclopropane-1-carbonyl)piperazin-1-yl)imidazo[1,5-a]pyridine-6-sulfonamide] as the compound, how does the IC50 [1, 4] read?
The IC50 was 11.4 nM.

And the IC50 [1, 5]?
The IC50 was under 100 nM.

And the IC50 [2, 6]?
Its IC50 is under 100 nM.

What about the IC50 ([2]; PARG, TFMU-ADPr substrate) of the same compound?
The IC50 was 16.6 nM.

With CN(C)CCN(C)C(=O)N1CCN(c2cc(S(=O)(=O)NC3(C)COC3)cn3c(-c4nnc(C(F)(F)F)s4)ncc23)CC1 [Example 185, N-(2-(dimethylamino)ethyl)-N-methyl-4-(6-(N-(3-methyloxetan-3-yl)sulfamoyl)-3-(5-(trifluoromethyl)-1,3,4-thiadiazol-2-yl)imidazo[1,5-a]pyridin-8-yl)piperazine-1-carboxamide] as the compound, how does the IC50 ([3]; Homo sapiens, HCC1806, 168 h) read?
Its IC50 is 797 nM.

What about the IC50 ([2]; PARG, TFMU-ADPr substrate) of the same compound?
The IC50 was 4.58 nM.

With COc1ccc(C(=O)/C=C/C(=O)N2CCN(c3cc(S(=O)(=O)NC4CC4)cn4c(-c5nnc(C(F)(F)F)s5)ncc34)CC2)cc1 [Example 243, (E)-N-cyclopropyl-8-(4-(4-(4-methoxyphenyl)-4-oxobut-2-enoyl)piperazin-1-yl)-3-(5-(trifluoromethyl)-1,3,4-thiadiazol-2-yl)imidazo[1,5-a]pyridine-6-sulfonamide] as the compound, how does the IC50 ([3]; Homo sapiens, HCC1806, 168 h) read?
Its IC50 is 200 nM.

What about the IC50 ([2]; PARG, TFMU-ADPr substrate) of the same compound?
Its IC50 is 871 nM.

C[C@@H]1CN(c2cc(S(=O)(=O)NC3CC3)cn3c(-c4nnc(C(F)(F)F)s4)nnc23)CCN1C(=O)C1(C)CC1 [Example 386, (R)—N-cyclopropyl-8-(3-methyl-4-(1-methylcyclopropane-1-carbonyl)piperazin-1-yl)-3-(5-(trifluoromethyl)-1,3,4-thiadiazol-2-yl)-[1,2,4]triazolo[4,3-a]pyridine-6-sulfonamide] was tested. Which IC50 ([3]; Homo sapiens, HCC1806, 168 h) did it give?
The IC50 was 7880 nM.

What about the IC50 ([2]; PARG, TFMU-ADPr substrate) of the same compound?
Its IC50 is 263 nM.

CC(C)C(=O)N1CCN(c2cc(S(=O)(=O)NC3(C)CC3)cn3c(-c4nnc(C(F)(F)F)s4)nc(C#N)c23)CC1 [Example 164, 1-cyano-8-(4-isobutyrylpiperazin-1-yl)-N-(1-methylcyclopropyl)-3-(5-(trifluoromethyl)-1,3,4-thiadiazol-2-yl)imidazo[1,5-a]pyridine-6-sulfonamide] was tested. Which IC50 ([3]; Homo sapiens, HCC1806, 168 h) did it give?
Its IC50 is 100 nM.

And the IC50 ([2]; PARG, TFMU-ADPr substrate)?
Its IC50 is 3.31 nM.

What does the source list for Cc1ncnn1CC(=O)N1CCN(c2cc(S(=O)(=O)NC3(C)CC3)cn3c(-c4nnc(C(F)(F)F)s4)ncc23)CC1 [Example 335, 8-(4-(2-(5-methyl-1H-1,2,4-triazol-1-yl)acetyl)piperazin-1-yl)-N-(1-methylcyclopropyl)-3-(5-(trifluoromethyl)-1,3,4-thiadiazol-2-yl)imidazo[1,5-a]pyridine-6-sulfonamide]?
IC50 ([3]; Homo sapiens, HCC1806, 168 h): 480 nM; IC50 ([2]; PARG, TFMU-ADPr substrate): 6.55 nM

For CC(C)(F)C(=O)N1CCN(c2cc(S(=O)(=O)NC3(C#N)CC3)cn3c(-c4nnc(C(F)(F)F)s4)ncc23)CC1 [Example 224, N-(1-cyanocyclopropyl)-8-(4-(2-fluoro-2-methylpropanoyl)piperazin-1-yl)-3-(5-(trifluoromethyl)-1,3,4-thiadiazol-2-yl)imidazo[1,5-a]pyridine-6-sulfonamide], which IC50 ([3]; Homo sapiens, HCC1806, 168 h) is on record?
Its IC50 is 1020 nM.

And the IC50 ([2]; PARG, TFMU-ADPr substrate)?
The IC50 was 13.8 nM.

With COC1(C(=O)N2CCN(c3cc(S(=O)(=O)NC4(C#N)CC4)cn4c(-c5nnc(C(F)F)s5)ncc34)CC2)CC1 [Example 192, N-(1-cyanocyclopropyl)-3-(5-(difluoromethyl)-1,3,4-thiadiazol-2-yl)-8-(4-(1-methoxycyclopropane-1-carbonyl)piperazin-1-yl)imidazo[1,5-a]pyridine-6-sulfonamide] as the compound, how does the IC50 ([3]; Homo sapiens, HCC1806, 168 h) read?
The IC50 was 30 nM.

What about the IC50 ([2]; PARG, TFMU-ADPr substrate) of the same compound?
Its IC50 is 0.83 nM.

Which IC50 [3] does the source give for CC(C)C(=O)N1CCN(c2cc(S(=O)(=O)NC3(C)CC3)cn3c(-c4nnc(C(F)(F)F)s4)nnc23)C[C@H]1C [Example 119, (R)-8-(4-isobutyryl-3-methylpiperazin-1-yl)-N-(1-methylcyclopropyl)-3-(5-(trifluoromethyl)-1,3,4-thiadiazol-2-yl)-[1,2,4]triazolo[4,3-a]pyridine-6-sulfonamide] here?
The IC50 was 431 nM.

What about the IC50 ([3]; Homo sapiens, HCC1806, 168 h) of the same compound?
Its IC50 is under 500 nM.

What about the IC50 [2, 6] of the same compound?
Its IC50 is under 100 nM.

And the IC50 ([2]; PARG, TFMU-ADPr substrate)?
The IC50 was 41.7 nM.

How did the IC50 ([3]; Homo sapiens, HCC1806, 168 h) turn out when CC1(NS(=O)(=O)c2cc(N3CCN(C(=O)C4(C)CCN4)CC3)c3cnc(-c4nnc(C(F)(F)F)s4)n3c2)CC1 (centres unmarked) [Example 321, 8-(4-(2-methylazetidine-2-carbonyl)piperazin-1-yl)-N-(1-methylcyclopropyl)-3-(5-(trifluoromethyl)-1,3,4-thiadiazol-2-yl)imidazo[1,5-a]pyridine-6-sulfonamide] was run?
The IC50 was 175 nM.

What about the IC50 ([2]; PARG, TFMU-ADPr substrate) of the same compound?
The IC50 was 2.93 nM.

With CC1(NS(=O)(=O)c2cc(N3CCN(C(=O)c4ccno4)CC3)c3cnc(-c4nnc(C(F)(F)F)s4)n3c2)CC1 [Example 329, 8-(4-(isoxazole-5-carbonyl)piperazin-1-yl)-N-(1-methylcyclopropyl)-3-(5-(trifluoromethyl)-1,3,4-thiadiazol-2-yl)imidazo[1,5-a]pyridine-6-sulfonamide] as the compound, how does the IC50 ([3]; Homo sapiens, HCC1806, 168 h) read?
The IC50 was 187 nM.

What about the IC50 ([2]; PARG, TFMU-ADPr substrate) of the same compound?
Its IC50 is 7.64 nM.

Which results are given for CC(C)C(=O)N1CCN(c2c(F)c(S(=O)(=O)NC3(C#N)CC3)cn3c(-c4nnc(C(F)(F)F)s4)ncc23)CC1 [Example 390, N-(1-cyanocyclopropyl)-7-fluoro-8-(4-isobutyrylpiperazin-1-yl)-3-(5-(trifluoromethyl)-1,3,4-thiadiazol-2-yl)imidazo[1,5-a]pyridine-6-sulfonamide]?
IC50 ([3]; Homo sapiens, HCC1806, 168 h): 793 nM; IC50 ([2]; PARG, TFMU-ADPr substrate): 28.2 nM

What does the source list for CC(C)C(=O)N1CCN(c2cc(S(=O)(=O)NC3(CF)COC3)cn3c(-c4nnc(C(F)F)s4)nnc23)CC1 [Example 106, 3-(5-(difluoromethyl)-1,3,4-thiadiazol-2-yl)-N-(3-(fluoromethyl)oxetan-3-yl)-8-(4-isobutyrylpiperazin-1-yl)-[1,2,4]triazolo[4,3-a]pyridine-6-sulfonamide]?
IC50 [3]: 5000 nM; IC50 ([3]; Homo sapiens, HCC1806, 168 h): 5000 to 30000 nM; IC50 [2, 6]: < 100 nM; IC50 ([2]; PARG, TFMU-ADPr substrate): 28.2 nM

Which IC50 ([3]; Homo sapiens, HCC1806, 168 h) does the source give for CC(CO)C(=O)N1CCN(c2cc(S(=O)(=O)NC3(C#N)CC3)cn3c(-c4nnc(C(F)(F)F)s4)ncc23)CC1 (centres unmarked) [Example 259, N-(1-cyanocyclopropyl)-8-(4-(3-hydroxy-2-methylpropanoyl)piperazin-1-yl)-3-(5-(trifluoromethyl)-1,3,4-thiadiazol-2-yl)imidazo[1,5-a]pyridine-6-sulfonamide] here?
Its IC50 is 1500 nM.

What about the IC50 ([2]; PARG, TFMU-ADPr substrate) of the same compound?
Its IC50 is 45.7 nM.

Which results are given for CC1(NS(=O)(=O)c2cc(C3=CCN(S(C)(=O)=O)CC3)c3cnc(-c4nnc(C(F)(F)F)s4)n3c2)CC1 [Example 377, N-(1-methylcyclopropyl)-8-(1-(methylsulfonyl)-1,2,3,6-tetrahydropyridin-4-yl)-3-(5-(trifluoromethyl)-1,3,4-thiadiazol-2-yl)imidazo[1,5-a]pyridine-6-sulfonamide]?
IC50 ([3]; Homo sapiens, HCC1806, 168 h): 60 nM; IC50 ([2]; PARG, TFMU-ADPr substrate): 1.41 nM

What does the source list for N#CC1(NS(=O)(=O)c2cc(C3=CCN(S(=O)(=O)C4CC4)CC3)c3cnc(-c4nnc(C(F)(F)F)s4)n3c2)CC1 [Example 369, N-(1-cyanocyclopropyl)-8-(1-(cyclopropylsulfonyl)-1,2,3,6-tetrahydropyridin-4-yl)-3-(5-(trifluoromethyl)-1,3,4-thiadiazol-2-yl)imidazo[1,5-a]pyridine-6-sulfonamide]?
IC50 ([3]; Homo sapiens, HCC1806, 168 h): 505 nM; IC50 ([2]; PARG, TFMU-ADPr substrate): 1.91 nM

For Cc1cnc(-c2cnn3c(N4CCN(C(=O)C(C)C)CC4)cc(S(=O)(=O)NC4(C#N)CC4)cc23)s1 [Example 29, N-(1-cyanocyclopropyl)-7-(4-isobutyrylpiperazin-1-yl)-3-(5-methylthiazol-2-yl)pyrazolo[1,5-a]pyridine-5-sulfonamide], which IC50 ([3]; Homo sapiens, HCC1806, 168 h) is on record?
The IC50 was 5000 to 30000 nM.

And the IC50 [2, 6]?
Its IC50 is under 100 nM.

And the IC50 ([2]; PARG, TFMU-ADPr substrate)?
The IC50 was 94.6 nM.
